# Data published in patent US12030929B2, “Fusobacterium nucleatum amyloid-like FadA for diagnosis and treatment of Fn-mediated pathogenesis” (The Trustees of Columbia University in the City of New York, priority 2021, dated 2024).
# How the values were obtained:
# Fn 12230 [1] = test: Biofilm assay: Fn biofilm formation on detergent-resistant Fn pellets; format: cell-based, Fusobacterium nucleatum; conditions: 0, 10 or 50 μg/ml Congo Red; 48 or 72 hours; crystal violet OD550
# Experimental: FIG. 4A-4F. Functional analysis of amyloid-like FadA in vitro. 4A. Facilitation of Fn biofilm formation by amyloid-like FadA. An aliquot of 10 μg each of the detergent-resistant pellets prepared from of Fn 12230 (wild type), US1 (ΔfadA) and lam, or PBS, was added to the 96-well plates and incubated at 37° C. for 5 hours. Fresh culture of Fn 12230 was diluted to OD600 of 0.2 and an aliquot of 200 μl was added to the wells, followed by incubation at 37° C. for 48 or 72 hours under anaerobic conditions. Following washes, the biofilms were incubated with 100 μl 0.1% crystal violet for 15 min. After washing, 100 μl 95% ethanol was added to each well and the optical density at OD550 was measured in a microplate reader. The results shown are the average of four experiments each performed in duplicate. A representative image following 72 hours of incubation is shown in the top panel. **p<0.01. ***p<0.001 (t-test). 4B. Inhibition of biofilm formation mediated by detergent-resistant Fn pellets by Congo Red. An aliquot of 10 μg detergent-resistant pellets prepared from Fn 12230 (pellet) was added in 96-well plates in the presence of 0, 10 or 50 μg/ml Congo Red (CR), followed by addition of Fn 12230 and incubated as described above. The results shown are the average of four experiments each performed in duplicate. […]
# Fn 12230 [2] = test: Effects of Congo Red on Fn viability (OD600 and CFU); format: cell-based, Fusobacterium nucleatum; conditions: incubation 48 or 72 hrs
# Experimental: FIG. 10A-10B. 10A. Schematic illustration of preparation of detergent-resistant bacterial pellets and its use as scaffold for biofilm growth. 10B. Effects of Congo Red on Fn viability. Fn 12230 was incubated in PBS (top row), 10 mg/ml Congo Red (10 CR), or 50 mg/ml Congo Red (50 CR) for 48 hrs (left panel) or 72 hrs (right panel), followed by measurement of OD600 (OD) and viable counts (CFU).
# US1 (ΔfadA) = test: pH tolerance assay, fadA-deletion mutant; format: cell-based, Fusobacterium nucleatum; conditions: stationary phase; pH 4.0; 50 μg/ml Congo Red; 1 or 2 hours
# [3] = test system: Fn binding to human CRC cells DLD1; test: Cell culture attachment assay, DLD1; format: cell-based; conditions: bacteria washed twice with 1 mg/ml Congo Red, MOI 50:1
compound,measurement,setting,value
Nc1c(/N=N/c2ccc(-c3ccc(/N=N/c4cc(S(=O)(=O)O)c5ccccc5c4N)cc3)cc2)cc(S(=O)(=O)O)c2ccccc12 [Congo Red],biofilm formation mediated by detergent-resistant Fn pellets,Fn 12230 [1],inhibited biofilm formation in a dose-dependent manner
same,viability of Fn,Fn 12230 [2],without affecting the viability of Fn
same,viability of US1 (ΔfadA) in acidic environment,US1 (ΔfadA),without affecting US1 (ΔfadA)
same,effect on Fn binding to DLD1,[3]; log phase,little or no effect on binding
same,reduction of Fn binding to DLD1,[3]; stationary phase,~5 fold
